Measured values taken from the supplement of paper PMC7017272.
± gives the standard deviation of the averaged measurements.

Assays:
UT-SCC-24A = test: maximal % inhibition of viability relative to DMSO; higher = stronger effect; conditions: treatment time: 3 days
Method: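 HNSCC cell lines (500 cells/well, 384-well) were cultured on plastic, on top of (2D) or embedded (3D) in Matrigel or human leiomyoma matrix Myogel (500 ug/mL; Myogel 3D mixed with rat collagen I). Cells were treated for 3 days with 5 ten-fold concentrations of each drug, and viability was read by CellTiter-Glo. Viability was normalised to DMSO (0% inhibition) and 100 uM benzethonium chloride (100% inhibition) controls and fitted with the FIMM DSRT pipeline to give IC50 (nM), maximal % inhibition and the drug sensitivity score (DSS). Suffixes _1/_2/_3 on drug names are replicates.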

UT-SCC-24B [1] = test: drug sensitivity score (DSS); higher = more sensitive; extreme values may be limits of the assay; conditions: treatment time: 3 days
Outline: (§1)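 Viability of HPV-negative HNSCC cell lines was measured by CellTiter-Glo 2.0 luminescence. Cells were seeded at 500 cells/well in 384-well plates on plastic, on Matrigel- or Myogel-coated wells (500 µg/mL), or embedded in Matrigel or Myogel plus rat collagen I, then given compounds at five 10-fold concentrations for 3 days, with signals normalised to vehicle (0.1% DMSO) and cell-killing control wells. Fitting of percent-inhibition dose–response curves in the FIMM pipeline yielded IC50, maximal inhibition and drug sensitivity score.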

UT-SCC-28 [2] = test: as above; conditions: treatment time: 3 days
Outline: as §1

UT-SCC-40 [3] = test: as above; conditions: treatment time: 3 days
Outline: as §1

UT-SCC-44 [4] = test: as above; conditions: treatment time: 3 days
Outline: as §1

UT-SCC-73 [5] = test: as above; conditions: treatment time: 3 days
Outline: as §1

UT-SCC-81 [6] = test: as above; conditions: treatment time: 3 days
Outline: as §1

UT-SCC-8 [7] = test: as above; conditions: treatment time: 3 days
Outline: as §1

UT-SCC-106A = test: relative IC50 (midpoint of the fitted curve; maximal inhibition may be below 50%); higher = less potent; conditions: treatment time: 3 days
Outline: as §1

UT-SCC-14 = test: as above; conditions: treatment time: 3 days
Outline: as §1

UT-SCC-24B [8] = test: as above; conditions: culture condition: on top of Myogel; treatment time: 3 days
Outline: as §1

UT-SCC-28 [9] = test: as above; conditions: culture condition: plastic 2D (no matrix); treatment time: 3 days
Outline: as §1

UT-SCC-40 [10] = test: as above; conditions: treatment time: 3 days
Outline: as §1

UT-SCC-42A = test: as above; conditions: treatment time: 3 days
Outline: as §1

UT-SCC-42B = test: as above; conditions: culture condition: on top of Myogel; treatment time: 3 days
Outline: as §1

UT-SCC-44 [11] = test: as above; conditions: treatment time: 3 days
Outline: as §1

UT-SCC-73 [12] = test: as above; conditions: treatment time: 3 days
Outline: as §1

UT-SCC-81 [13] = test: as above; conditions: treatment time: 3 days
Outline: as §1

UT-SCC-8 [14] = test: as above; conditions: treatment time: 3 days
Outline: as §1

[15] = culture condition: embedded in Matrigel
[16] = culture condition: embedded in Myogel + collagen I
[17] = culture condition: on top of Matrigel
[18] = culture condition: on top of Myogel
[19] = culture condition: plastic 2D (no matrix)

- relative IC50 (UT-SCC-106A; [17]): 3.18 nM
- relative IC50 (UT-SCC-106A; [18]): 4.08 nM
- relative IC50 (UT-SCC-106A; [19]): 1.95 nM
- relative IC50 (UT-SCC-14; [15]): 0.458 nM
- relative IC50 (UT-SCC-14; [16]): 0.654 nM
- relative IC50 (UT-SCC-14; [17]): 0.765 nM
- relative IC50 (UT-SCC-14; [18]): 0.33 nM
- relative IC50 (UT-SCC-14; [19]): 0.458 nM
- relative IC50 (UT-SCC-24B [8]): 1 nM
- relative IC50 (UT-SCC-28 [9]): 0.519 nM
- relative IC50 (UT-SCC-40 [10]; [16]): 2.84 nM
- relative IC50 (UT-SCC-40 [10]; [17]): 0.896 nM
- relative IC50 (UT-SCC-42A; [15]): 5.49 nM
- relative IC50 (UT-SCC-42A; [18]): 2.26 nM
- relative IC50 (UT-SCC-42A; [19]): 7.63 nM
- relative IC50 (UT-SCC-42B): > 98.9 nM
- relative IC50 (UT-SCC-44 [11]; [17]): 0.711 nM
- relative IC50 (UT-SCC-44 [11]; [19]): 0.691 nM
- relative IC50 (UT-SCC-73 [12]; [16]): 0.997 nM
- relative IC50 (UT-SCC-73 [12]; [17]): 0.383 nM
- relative IC50 (UT-SCC-73 [12]; [19]): 1.06 nM
- relative IC50 (UT-SCC-81 [13]; [17]): 1.13 nM
- relative IC50 (UT-SCC-81 [13]; [18]): 0.543 nM
- relative IC50 (UT-SCC-81 [13]; [19]): 0.857 nM
- relative IC50 (UT-SCC-8 [14]; [15]): 0.997 nM
- relative IC50 (UT-SCC-8 [14]; [18]): 0.785 nM
- relative IC50 (UT-SCC-8 [14]; [19]): 0.669 nM
Compound: CO[C@H]1C[C@@H]2CC[C@@H](C)[C@@](O)(O2)C(=O)C(=O)N2CCCC[C@H]2C(=O)O[C@H]([C@H](C)C[C@@H]2CC[C@@H](OC(=O)C(C)(CO)CO)[C@H](OC)C2)CC(=O)[C@H](C)/C=C(\C)[C@@H](O)[C@@H](OC)C(=O)[C@H](C)C[C@H](C)/C=C/C=C/C=C/1C [Temsirolimus]
- maximal % inhibition of viability (UT-SCC-24A; [15]): 46.8 ± 44%
- maximal % inhibition of viability (UT-SCC-24A; [16]): 40.8 ± 6.7%
- maximal % inhibition of viability (UT-SCC-24A; [17]): 33.3 ± 6.1%
- maximal % inhibition of viability (UT-SCC-24A; [18]): 28.7 ± 1.9%
- maximal % inhibition of viability (UT-SCC-24A; [19]): 33.8 ± 2.7%
- drug sensitivity score (UT-SCC-24B [1]; [15]): 5.07 ± 3.1 DSS
- drug sensitivity score (UT-SCC-24B [1]; [16]): 11 ± 2.6 DSS
- drug sensitivity score (UT-SCC-24B [1]; [17]): 4.3 ± 1.7 DSS
- drug sensitivity score (UT-SCC-24B [1]; [18]): 6.37 ± 1.4 DSS
- drug sensitivity score (UT-SCC-24B [1]; [19]): 4.77 ± 1.2 DSS
- drug sensitivity score (UT-SCC-28 [2]; [15]): 4.9 ± 2.9 DSS
- drug sensitivity score (UT-SCC-28 [2]; [16]): 4.77 ± 3.2 DSS
- drug sensitivity score (UT-SCC-28 [2]; [17]): 8.37 ± 2.5 DSS
- drug sensitivity score (UT-SCC-28 [2]; [19]): 8.8 ± 1.3 DSS
- drug sensitivity score (UT-SCC-40 [3]; [15]): 6.03 ± 2 DSS
- drug sensitivity score (UT-SCC-40 [3]; [16]): 6.8 ± 2.6 DSS
- drug sensitivity score (UT-SCC-40 [3]; [17]): 4.17 ± 1.6 DSS
- drug sensitivity score (UT-SCC-40 [3]; [18]): 4.53 ± 1.1 DSS
- drug sensitivity score (UT-SCC-40 [3]; [19]): 3.6 ± 1 DSS
- drug sensitivity score (UT-SCC-44 [4]; [15]): 5.33 ± 4 DSS
- drug sensitivity score (UT-SCC-44 [4]; [16]): 9.3 ± 3.5 DSS
- drug sensitivity score (UT-SCC-44 [4]; [17]): 9.13 ± 1 DSS
- drug sensitivity score (UT-SCC-44 [4]; [18]): 8.97 ± 1.4 DSS
- drug sensitivity score (UT-SCC-44 [4]; [19]): 7.9 ± 0.78 DSS
- drug sensitivity score (UT-SCC-73 [5]; [15]): 9.13 ± 6.3 DSS
- drug sensitivity score (UT-SCC-73 [5]; [16]): 8.27 ± 5.5 DSS
- drug sensitivity score (UT-SCC-73 [5]; [17]): 7.23 ± 0.64 DSS
- drug sensitivity score (UT-SCC-73 [5]; [18]): 7.1 ± 2.2 DSS
- drug sensitivity score (UT-SCC-73 [5]; [19]): 4.53 ± 1.6 DSS
- drug sensitivity score (UT-SCC-81 [6]; [15]): 14.9 ± 3.1 DSS
- drug sensitivity score (UT-SCC-81 [6]; [16]): 15 ± 3.8 DSS
- drug sensitivity score (UT-SCC-81 [6]; [17]): 10.2 ± 0.74 DSS
- drug sensitivity score (UT-SCC-81 [6]; [18]): 14.7 ± 1.5 DSS
- drug sensitivity score (UT-SCC-81 [6]; [19]): 12.1 ± 2.3 DSS
- drug sensitivity score (UT-SCC-8 [7]; [15]): 9.4 ± 0.36 DSS
- drug sensitivity score (UT-SCC-8 [7]; [16]): 4.53 ± 0.57 DSS
- drug sensitivity score (UT-SCC-8 [7]; [17]): 9.17 ± 1.2 DSS
- drug sensitivity score (UT-SCC-8 [7]; [18]): 11.4 ± 1.6 DSS
- drug sensitivity score (UT-SCC-8 [7]; [19]): 10.4 ± 1.1 DSS
